Drawing on patent US20230201168A1, “NEW THERAPY FOR THE TREATMENT OF TUMORS” (Università degli Studi di Trento, priority 2020, published 2023), this text covers GI50 for 1 compound.

In one assay the test system is COMI cells. In words: Viability assay (Hoechst 33342/PI), COMI cells. The note with it: Homo sapiens, 48 h, mean±SD. In kind it is cell-based. The procedure:
(§1) For the evaluation of the effect of Q/D, streptogramins A analogues (alone or in combination with Q) and TMZ on GSCs viability, cells were seeded into 96-well laminin-coated microtiter plates in 150 μL of media. The plates were incubated for 24 h prior to drug treatment. Serial drug dilutions were prepared in PBS to provide a total of seven drug concentrations plus control. 10 μL of these dilutions were added to each well, and the plates were incubated for additional 48 h. Each treatment was performed in technical quadruplicate. After the drug treatments, the cells were stained with Hoechst 33342 (1 μg/mL; Thermo Fisher Scientific, cat. H1399) and Propidium Iodide (PI, 1 μg/mL; Sigma Aldrich, cat. P4170) and incubated for 20 min shaking in the dark. The plates were then read using Operetta-High Content Imaging System (Perkin Elmer) and analyzed using the Harmony Software. The number of viable cells was calculated by subtracting PI positive cells from the total number of cells estimated by Hoechst 33342 staining and normalized on the non treated control.
(§2) Dose-response curves were plotted and growth inhibition 50 (GI50) values calculated using the GraphPad Prism software.

The subject of a further assay is VIPI cells. Nature of the assay: Viability assay (Hoechst 33342/PI), VIPI cells. In kind it is cell-based. Conditions: Homo sapiens, 48 h, mean±SD. The procedure: as §1, §2

For orientation: GI50 means the concentration giving 50% growth inhibition. Take `Cn1nnc2c(C(N)=O)ncn2c1=O` [TMZ, temozolomide]: the values for the GI50 in the assay with COMI cells and in the assay with VIPI cells were 96.5 ± 15.2 µM and 338 ± 35.5 µM, respectively.
